For 14 compounds, EC50 and Activity results are on record in ChEMBL document CHEMBL4602684, “Siderophores from the Entomopathogenic Fungus Beauveria bassiana” (J Nat Prod, 2020).

Counter-ions that a name gives are not always drawn. Activity calls are given as the source filed them. The calls are words filed in the database; no cut-off is given here.

Experiment [1] in a line: Binding affinity to Fe3+ assessed as formation of Fe3+-compound complex incubated for 22 hrs by liquid CAS assay.
Experiment [2] is described as follows: Binding affinity to Fe3+ assessed as formation of Fe3+-compound complex at 100 ug/disk by CAS agar disk diffusion method. (In general: In agar diffusion tests the substance spreads into inoculated agar from a disc or well.)
A short description of experiment [3]: Binding affinity to Fe3+ assessed as formation of Fe3+-compound complex in presence of FeCl3 by HRESIMS method.
Experiment [4] can be described thus: Binding affinity to Fe3+ assessed as formation of Fe3+-compound complex stoichiometry ratio of 2:1 by HRESIMS method.
The nature of experiment [5]: Binding affinity to Fe3+ assessed as formation of Fe3+-compound complex stoichiometry ratio of 3:1 by HRESIMS method.
Experiment [6] can be described thus: Binding affinity to Fe3+ assessed as formation of Fe3+-compound complex stoichiometry ratio of 1:1 by HRESIMS method.

Turning to `CC(=O)N(O)CCCCCNC(=O)CCC(=O)N(O)CCCCCNC(=O)CCC(=O)N(O)CCCCCN` [DEFEROXAMINE MESYLATE], the EC50 (in general, the concentration that produces a half-maximal response) in experiment [1] is 20 µM.
Turning to `CO[C@H]1[C@H](O)[C@H](O)[C@H](OCC/C(C)=C/C(=O)N(O)CCC[C@@H]2NC(=O)[C@H](CCCN(O)C(=O)/C=C(\C)CCO)NC2=O)O[C@@H]1CO`, the outcome in experiment [2] and in experiment [3] was Active.
For `CO[C@H]1[C@H](O)[C@H](O)[C@H](OCC/C(C)=C/C(=O)N(O)CCC[C@@H](C(=O)O)N(C)C)O[C@@H]1CO`, the outcome in experiment [2] and in experiment [5] was inactive. Also, the result in experiment [4] and in experiment [6] was Active.
Regarding `CO[C@H]1[C@H](O)[C@H](O)[C@H](OCC[C@@](C)(O)CC(=O)N(O)CCC[C@@H]2NC(=O)[C@H](CCCN(O)C(=O)/C=C(\C)CCO)NC2=O)O[C@@H]1CO`, the result in experiment [2] and in experiment [3] was Active.
For `C/C(=C\C(=O)NCCC[C@@H]1NC(=O)[C@H](CCCNC(=O)/C=C(\C)CCO)NC1=O)CCO`, the result in experiment [2] and in experiment [3] was inactive.
Turning to `C/C(=C\C(=O)N(O)CCC[C@@H](N)C(=O)O)CCO`, the result in experiment [2] was inactive.
On to `C/C(=C\C(=O)N(O)CCC[C@@H]1NC(=O)[C@H](CCCN(O)C(=O)/C=C(\C)CCO[C@@H]2O[C@H](CO)[C@@H](O)[C@H](O)[C@@H]2O)NC1=O)CCO`, for which the result in experiment [2] and in experiment [3] was Active.
Regarding `C/C(=C\C(=O)N(O)CCC[C@@H]1NC(=O)[C@H](CCCN(O)C(=O)C[C@](C)(O)CCO[C@@H]2O[C@H](CO)[C@@H](O)[C@H](O)[C@@H]2O)NC1=O)CCO`, the result in experiment [2] and in experiment [3] was Active.
For the compound `C/C(=C\C(=O)N(O)CCC[C@@H]1NC(=O)[C@H](CCCN(O)C(=O)C[C@](C)(O)CCO)NC1=O)CCO`, the outcome in experiment [2] and in experiment [3] was Active.
`CO[C@H]1[C@H](O)[C@H](O)[C@H](OCC/C(C)=C/C(=O)N(O)CCC[C@@H](C(=O)O)[N+](C)(C)[O-])O[C@@H]1CO`: the result in experiment [2] and in experiment [5] was inactive. The outcome in experiment [4] and in experiment [6] was Active.
For the compound `C/C(=C\C(=O)N(O)CCC[C@@H]1NC(=O)[C@H](CCC[N+](=O)[O-])NC1=O)CCO`, the outcome in experiment [2] and in experiment [5] was inactive. For the same compound, the outcome in experiment [4] and in experiment [6] was Active.
In the case of `C[C@@](O)(CCO)CC(=O)N(O)CCC[C@@H]1NC(=O)[C@H](CCCN(O)C(=O)C[C@](C)(O)CCO)NC1=O`, the outcome in experiment [2] and in experiment [3] was Active.
As for `C/C(=C\C(=O)N(O)CCC[C@@H]1NC(=O)[C@H](CCCN(O)C(=O)/C=C(\C)CCO[C@@H]2O[C@H](CO)[C@@H](O)[C@H](O)[C@@H]2O)NC1=O)CCOC(=O)[C@H](CCCN(O)C(=O)/C=C(\C)CCO[C@@H]1O[C@H](CO)[C@@H](O)[C@H](O)[C@@H]1O)[N+](C)(C)[O-]`, the outcome in experiment [2] and in experiment [3] was Active. For the same compound, the EC50 in experiment [1] amounted to 15.7 µM.
On to `C/C(=C\C(=O)N(O)CCC[C@@H]1NC(=O)[C@H](CCCN(O)C(=O)/C=C(\C)CCO)NC1=O)CCO`, for which the result in experiment [2] and in experiment [3] was Active. The concentration giving a half-maximal response (EC50) in experiment [1] turned out to be 13 µM.
